Test results reported in the OligoGym collection.
Bases are written 5' to 3'; sugars and linkages follow in the same order, as letters with counts (s phosphorothioate, o phosphodiester; PS: all linkages phosphorothioate). The collection does not say whether C is 5-methylated. l = locked nucleic acid (LNA); d = 2'-deoxy (DNA)

target: Tau; assay: rat primary cortical neurons, FLIPR, 25 uM ASO

Sequence | calcium oscillation score
CTTTATTTCCAAATTCACT (sugars l3 d11 l2 d1 l2, PS) | 116 % of control
CTTTATTTCCAAATTCACT (sugars l3 d11 l5, PS) | 121 % of control
CTTTATTTCCAAATTCACT (sugars l4 d10 l1 d1 l3, PS) | 106 % of control
CTTTATTTCCAAATTCACT (sugars l4 d10 l1 d2 l2, PS) | 125 % of control
CTTTATTTCCAAATTCACT (sugars l4 d10 l2 d1 l2, PS) | 93.2 % of control
CTTTATTTCCAAATTCACT (sugars l4 d10 l5, PS) | 108 % of control
CTTTATTTCCAAATTCACT (sugars l5 d9 l1 d1 l3, PS) | 110 % of control
CTTTATTTCCAAATTCACT (sugars l5 d9 l1 d2 l2, PS) | 104 % of control
CTTTATTTCCAAATTCACT (sugars l5 d9 l2 d1 l2, PS) | 108 % of control
CTTTATTTCCAAATTCACT (sugars l5 d9 l5, PS) | 127 % of control
CTTTATTTCCAAATTCACTT (sugars l1 d17 l2, PS) | 179 % of control
CTTTATTTCCAAATTCACTT (sugars l2 d1 l1 d12 l4, PS) | 44.7 % of control
CTTTATTTCCAAATTCACTT (sugars l2 d1 l1 d13 l3, PS) | 132 % of control
CTTTATTTCCAAATTCACTT (sugars l2 d1 l2 d11 l4, PS) | 0 % of control
CTTTATTTCCAAATTCACTT (sugars l2 d1 l2 d12 l3, PS) | 112 % of control
CTTTATTTCCAAATTCACTT (sugars l2 d2 l1 d11 l4, PS) | 74.5 % of control
CTTTATTTCCAAATTCACTT (sugars l2 d2 l1 d12 l3, PS) | 108 % of control
CTTTATTTCCAAATTCACTT (sugars l2 d16 l2, PS) | 195 % of control
CTTTATTTCCAAATTCACTT (sugars l3 d1 l1 d11 l4, PS) | 129 % of control
CTTTATTTCCAAATTCACTT (sugars l3 d1 l1 d12 l3, PS) | 29.8 % of control
CTTTATTTCCAAATTCACTT (sugars l3 d11 l1 d2 l3, PS) | 112 % of control
CTTTATTTCCAAATTCACTT (sugars l3 d14 l3, PS) | ≥ 200 % of control
CTTTATTTCCAAATTCACTT (sugars l4 d11 l5, PS) | 136 % of control
CTTTATTTCCAAATTCACTT (sugars l4 d12 l4, PS) | 0 % of control
CTTTATTTCCAAATTCACTT (sugars l4 d13 l3, PS) | 121 % of control
CTTTATTTCCAAATTCACTT (sugars l5 d10 l5, PS) | ≥ 200 % of control
CTTTATTTCCAAATTCACTT (sugars l5 d11 l4, PS) | 143 % of control

Sequence | calcium oscillation score
CTTTATTTCCAAATTCACTT (sugars ldlllddddddddddlldll, PS) | 134 % of control
CTTTATTTCCAAATTCACTT (sugars lldllddddddddddlldll, PS) | 117 % of control
CTTTCATCTACTTTTCAG (sugars l3 d12 l3, PS) | 70.8 % of control
CTTTCCTAATTCCCAAATTC (sugars l3 d15 l2, PS) | 60.9 % of control
CTTTCTACTCAATTCCAG (sugars l3 d12 l3, PS) | 45.5 % of control
CTTTGAACACCCCATCTA (sugars l2 d14 l2, PS) | 45.6 % of control
CTTTGAGTTGAGGGAC (sugars l3 d10 l3, PS) | 29.1 % of control
CTTTGCTTTTACTGACCATG (sugars l3 d14 l3, PS) | 0 % of control
CTTTGGCGTTCTCGCG (sugars l3 d10 l3, PS) | 93.5 % of control
CTTTGTAATTCCTTCTCT (sugars l2 d13 l3, PS) | 63.3 % of control
CTTTTAATTAAATTTCTCCC (sugars l2 d15 l3, PS) | 87.6 % of control
CTTTTCCCAATTATTAAC (sugars l4 d10 l4, PS) | 60.1 % of control
CTTTTCCCAATTATTAACC (sugars l3 d14 l2, PS) | 54.5 % of control
CTTTTCTACTCTACTCTCAA (sugars l4 d14 l2, PS) | 67.6 % of control
CTTTTCTCAATGTAACC (sugars l4 d10 l3, PS) | 65.9 % of control
CTTTTCTTAAAGTTCAC (sugars l4 d9 l4, PS) | 82.2 % of control
CTTTTGAACCCATTCCA (sugars l3 d12 l2, PS) | 82.2 % of control
CTTTTGAACCCATTCCAC (sugars l3 d13 l2, PS) | 110 % of control
CTTTTTCCATCTTACTAATA (sugars l3 d14 l3, PS) | 46.5 % of control
CTTTTTCTTGTTCTAAC (sugars l2 d11 l4, PS) | 57.9 % of control
CTTTTTCTTGTTCTAACC (sugars l3 d11 l4, PS) | 62.3 % of control
CTTTTTTTTTCCACACTCTC (sugars l2 d14 l4, PS) | 49 % of control
GAAAACCATCAACCAC (sugars l4 d8 l4, PS) | 44.3 % of control
GAAAGAGGGCAGCAGG (sugars l3 d10 l3, PS) | 0 % of control
GAAAGATGAAATTTGCTCTT (sugars l3 d14 l3, PS) | 100 % of control
GAAATCCCTCTACTCC (sugars l2 d11 l3, PS) | 70.7 % of control
